Reference: ChEMBL document CHEMBL3608270, “Advances in tetrahydropyrido[1,2-a]isoindolone (valmerins) series: Potent glycogen synthase kinase 3 and cyclin dependent kinase 5 inhibitors” (Eur J Med Chem, 2015)

Legend:
[1] = biological target: Glycogen synthase kinase-3 (Sus scrofa, UniProt B2LUN4+I6LNT8); experiment: Inhibition of porcine brain GSK3alpha/beta using GS-1 substrate and ATP
[2] = Selectivity index, ratio of IC50 for human recombinant CDK5/p25 to porcine brain GSK3alpha/beta
[3] = biological target: Cyclin-dependent kinase 5/CDK5 activator 1 (Homo sapiens, UniProt Q00535); experiment: Inhibition of human recombinant CDK5/p25 using histone H1 substrate and ATP; type: protein-complex assay
[4] = tested on: Caco-2; experiment: cells; details: Homo sapiens, Caco-2, 48 h
[5] = cells; details: Homo sapiens, Huh-7, 48 h
[6] = tested on: NCI-H727; experiment: cells; details: Homo sapiens, NCI-H727, 48 h
[7] = tested on: HCT-116; experiment: cells; details: Homo sapiens, HCT-116, 48 h
[8] = tested on: PC-3; experiment: cells; details: Homo sapiens, PC-3, 48 h
[9] = tested on: MDA-MB-231; experiment: cells; details: Homo sapiens, MDA-MB-231, 48 h
[10] = tested on: PC-3
[11] = tested on: NCI-H727
[12] = tested on: MDA-MB-231
[13] = tested on: HCT-116
[14] = tested on: Caco-2
[15] = biological target: Dual specificity tyrosine-phosphorylation-regulated kinase 1A (Homo sapiens, UniProt Q13627); experiment: Inhibition of human recombinant GST-tagged DYRK1A expressed in Escherichia coli

Chain of Cyclin-dependent kinase 5/CDK5 activator 1 (Q00535 whole entry): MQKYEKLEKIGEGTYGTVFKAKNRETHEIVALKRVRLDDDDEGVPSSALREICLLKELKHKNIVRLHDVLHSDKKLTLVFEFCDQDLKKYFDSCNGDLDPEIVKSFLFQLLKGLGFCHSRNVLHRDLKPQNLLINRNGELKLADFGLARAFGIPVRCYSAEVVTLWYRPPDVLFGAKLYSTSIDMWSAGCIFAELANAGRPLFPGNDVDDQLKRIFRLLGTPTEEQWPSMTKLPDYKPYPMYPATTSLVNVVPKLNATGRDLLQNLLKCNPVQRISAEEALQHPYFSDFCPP
Chain of Cyclin-dependent kinase 5/CDK5 activator 1 (Q15078 whole entry, further chain): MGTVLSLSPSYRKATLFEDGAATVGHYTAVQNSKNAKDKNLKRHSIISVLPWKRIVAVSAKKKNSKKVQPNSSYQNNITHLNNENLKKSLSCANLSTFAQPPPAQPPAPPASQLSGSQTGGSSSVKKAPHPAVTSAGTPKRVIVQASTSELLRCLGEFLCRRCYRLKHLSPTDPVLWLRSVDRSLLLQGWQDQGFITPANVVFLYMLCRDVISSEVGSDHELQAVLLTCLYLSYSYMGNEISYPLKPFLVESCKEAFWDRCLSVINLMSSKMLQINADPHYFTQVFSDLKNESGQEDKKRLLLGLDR

Compound | IC50 [1] [nM] | Ratio IC50 [2] | IC50 [3] [nM] | IC50 [15] [nM] | also measured
O=C(Nc1ccccn1)Nc1cccc2c1C1CC3(CCN1C2=O)SCCS3 (configuration not stated) | 33 | 7.2 |  |  | 
O=C1CCN2C(=O)c3cccc(NC(=O)Nc4ccccn4)c3C2C1 (configuration not stated) | 230 |  | 1600 |  | 
O=C(Nc1ccccn1)Nc1cccc2c1[C@@H]1C[C@H](O)CCN1C2=O |  |  | 2100 |  | 
O=C(Nc1cnccn1)Nc1cccc2c1C1CC3(CCN1C2=O)SCCS3 (configuration not stated) | 44 |  |  |  | IC50 [4]: 500 nM; IC50 [5]: 100 nM; IC50 [6]: 400 nM; IC50 [7]: 100 nM; IC50 [8]: 600 nM; IC50 [9]: 150 nM
O=C1CCN2C(=O)c3cccc(NC(=O)Nc4cnccn4)c3C2C1 (configuration not stated) | 1200 |  | 3600 |  | 
Cc1cccc(NC(=O)Nc2cccc3c2C2CC4(CCN2C3=O)OCCO4)n1 (configuration not stated) | 920 | > 10 |  |  | 
Cc1cccc(NC(=O)Nc2cccc3c2C2CC4(CCN2C3=O)SCCS4)n1 (configuration not stated) | 2000 | > 5 |  |  | 
COc1cc(NC(=O)Nc2cccc3c2C2CC4(CCN2C3=O)OCCO4)nc2ccccc12 (configuration not stated) | 1000 | > 10 |  |  | 
COc1cc(NC(=O)Nc2cccc3c2C2CC4(CCN2C3=O)SCCS4)nc2ccccc12 (configuration not stated) | 4000 | > 2.5 |  |  | 
Cc1cccnc1NC(=O)Nc1cccc2c1C1CC3(CCN1C2=O)OCCO3 (configuration not stated) | 610 | 5 |  |  | 
Cn1ccc(NC(=O)Nc2cccc3c2C2CC4(CCN2C3=O)SCCS4)n1 (configuration not stated) | 1900 | > 5.2 |  |  | 
Cc1cnc(NC(=O)Nc2cccc3c2C2CC4(CCN2C3=O)SCCS4)cn1 (configuration not stated) | 55 |  |  |  | IC50 [4]: 500 nM; IC50 [5]: 300 nM; IC50 [6]: 800 nM; IC50 [7]: 200 nM; IC50 [8]: 400 nM; IC50 [9]: 400 nM
O=C(Nc1ccc(Br)cn1)Nc1cccc2c1C1CC3(CCN1C2=O)SCCS3 (configuration not stated) | 68 | 107 |  |  | 
O=C(Nc1cnccn1)Nc1cccc2c1[C@@H]1C[C@H](O)CCN1C2=O (relative stereo) | 32 |  | 84 | > 10000 | IC50 [10]: Not Active; IC50 [11]: Not Active; IC50 [12]: Not Active; IC50 [13]: Not Active; IC50 [14]: Not Active
COc1cc(NC(=O)Nc2cccc3c2[C@@H]2C[C@H](OC)CCN2C3=O)nc2ccccc12 (relative stereo) | 180 | 47.5 | 8500 | > 10000 | 
COc1cc(NC(=O)Nc2cccc3c2[C@@H]2C[C@H](O)CCN2C3=O)nc2ccccc12 (relative stereo) | 35 |  | 4900 | > 10000 | IC50 [10]: Not Active; IC50 [11]: Not Active; IC50 [12]: Not Active; IC50 [13]: Not Active; IC50 [14]: Not Active
Cc1cccnc1NC(=O)Nc1cccc2c1[C@@H]1C[C@H](O)CCN1C2=O (relative stereo) |  |  | 630 |  | 

More lines, main results first:

IC50 [1] [nM] | Ratio IC50 [2] | IC50 [3] [nM] | IC50 [15] [nM] | Compound | also measured
 |  | 1000 |  | Cc1cccc(NC(=O)Nc2cccc3c2[C@@H]2C[C@H](O)CCN2C3=O)n1 | IC50 [10]: Not Active; IC50 [11]: Not Active; IC50 [12]: Not Active; IC50 [13]: Not Active; IC50 [14]: Not Active
81 | 6.8 | 550 | > 10000 | CO[C@@H]1CCN2C(=O)c3cccc(NC(=O)Nc4ccccn4)c3[C@@H]2C1 (relative stereo) | 
200 | 2.4 | 480 | > 10000 | CO[C@@H]1CCN2C(=O)c3cccc(NC(=O)Nc4cnccn4)c3[C@@H]2C1 (relative stereo) | 
320 | 13.4 | 4300 | > 10000 | CO[C@@H]1CCN2C(=O)c3cccc(NC(=O)Nc4cccc(C)n4)c3[C@@H]2C1 (relative stereo) | 
 |  | 1100 | > 10000 | CO[C@@H]1CCN2C(=O)c3cccc(NC(=O)Nc4ncccc4C)c3[C@@H]2C1 (relative stereo) | 
 |  | 2300 | > 10000 | CO[C@@H]1CCN2C(=O)c3cccc(NC(=O)Nc4ccn(C)n4)c3[C@@H]2C1 (relative stereo) | 
140 | 10 | 320 | > 10000 | CO[C@@H]1CCN2C(=O)c3cccc(NC(=O)Nc4cnc(C)cn4)c3[C@@H]2C1 (relative stereo) | 
32 | 10 | 320 | > 10000 | CO[C@@H]1CCN2C(=O)c3cccc(NC(=O)Nc4cc(C)ccn4)c3[C@@H]2C1 (relative stereo) | IC50 [4]: 500 nM; IC50 [5]: 100 nM; IC50 [6]: 400 nM; IC50 [7]: 30 nM; IC50 [8]: 400 nM; IC50 [9]: 300 nM
